According to ChEMBL document CHEMBL3045381, “Antiproliferative activity of pentadeca-(8E, 13Z) dien-11-yn-2-one and (E)-1,8-pentadecadiene from Echinacea pallida (Nutt.) Nutt. roots” (Med Chem Res, 2013):
Active and inactive are the calls of the source. The rule behind the calls is not given here.

How the values were obtained:
Type in all cases: functional, cell-based
C6 [1] = experiment: Antiproliferative activity against Rattus norvegicus (rat) C6 cells at 5 to 75 ug/ml after 24 hr by BRdU incorporation assay
HeLa [2] = experiment: Antiproliferative activity against Homo sapiens (human) HeLa cells at 5 to 40 ug/ml after 24 hr by BRdU incorporation assay
HeLa [3] = experiment: Antiproliferative activity against Homo sapiens (human) HeLa cells at 5 to 100 ug/ml after 24 hr by BRdU incorporation assay
C6 [4] = experiment: Antiproliferative activity against Rattus norvegicus (rat) C6 cells at 5 to 100 ug/ml after 24 hr by BRdU incorporation assay

SMILES	Activity (C6 [1])	Activity (HeLa [2])	Activity (HeLa [3])	Activity (C6 [4])
C/C=C\C#CC/C=C\CCCCCC(C)=O	Active	Active		
C=CCCCCC/C=C/CCCCCC			inactive	inactive
